Measurements reported in US20140057860A1, “PHARMACEUTICAL COMPOSITION FOR TREATING CARDIOVASCULAR AND CEREBROVASCULAR DISEASES AND METHOD OF MANUFACTURING THE SAME” (Macau University of Science and Technology, priority 2012, published 2014).
Where two headings read alike, the source gives them in different places.

Legend:
[1] = tested on: Caco-2 monolayers; type: in vitro ADME; details: human
[2] = biological target: T1, human MRP2 (Homo sapiens, UniProt Q92887); experiment: MRP2 membrane vesicles transport assay with scutellarin as probe (Example 13); type: biochemical
T1 construct: purchased BD Biosciences; host or cells: insect Sf9 cells
Experimental: With some changes in BD protocol of MRP2 vesicles assay, a rapid filtration technique of multiscreen HTS vacuum manifold (Millipore) was used in the analysis. […] The mixture was incubated in the buffer (250 mM sucrose, 10 mM MgCl2, 10 mM Tris/HCl, pH 7.4) at 37° C. for […], followed by addition of 15 μl of 25 mM MgATP or blank buffer to each well started the test. The mixture was incubated for 4 min and stopped by transferring the membrane vesicles to a filter plate.

[3] = tested on: Caco-2 monolayers; type: in vitro ADME, human
Experimental: Caco-2 cells were seeded on 24-well Millicell insert filters with a density of about 1×10^5 cells/well. These cells were cultured for 21 days to reach confluence and differentiation. The integrity of Caco-2 cell monolayers was evaluated by monitoring trans-epithelial electrical resistance (TEER) on an epithelial volt ohmmeter (World Precision Instruments, Sarasota, Fla., USA). The impermeability (gate functions) of epithelial cell monolayers was measured by the fluorescein leakage test (FLT) that provided information on the effects of xenobiotics on the impermeability of epithelial cell monolayers. The differentiation was assessed using the alkaline phosphatase (ALP) assay at 562 nm
After the above measured parameters of the Caco-2 model became stable, transport study was performed from the apical (AP) to the basolateral (BL) side and from BL to AP at 37° C. Following 30 min of equilibration after the addition of 400 μl HBSS (pH 7.4) in AP side and 600 μl in BL side in an atmosphere of 5% CO2, the test solutions containing 100 μM scutellarin or each of 100 μg/ml of five surfactants Cremophor® EL, Cremophor® RH, Labrasol®, Pluronic® F68, and Pluronic® F127; each of 100 μg/ml of three oils Labrafac Lipophile® WL1349, Maisine® 35-1, and Capmul® MCM; each of 100 μg/ml of three co-surfactants Transcutol®, PEG 400, and PEG 2000; and each of 100 μg/ml of four solid carriers β-cyclodextrin, lactose, HPMC K4M®, HPMC K100®. The solutions were all dissolved in DMSO and HBSS and then added to the donor side. The sample of 100 μM scutellarin was used as the scutellarin standard group in comparing the excipients efflux effect. Permeability of scutellarin was measured at 37° C. from the AP to BL direction and BL to AP direction after incubating in 5% CO2 for respectively 30 min, 60 min, and 90 min. […] After 90 min of incubation, solutions from both AP and BL sides were collected. Then the separately collected samples from each well of AP and BL sides were diluted with equal amounts of methanol before they were injected into the LC-MS for quantification of scutellarin. At 30, 60, 90 min of incubation, TEER values were respectively detected before the samples were drawn from the tested wells.
In the Caco-2 permeation analysis, if the calculated efflux ratio of one excipient group was lower than scutellarin standard group, this excipient might possibly be indicated to have the inhibition effect on MRP2.

[4] = human, Caco-2, 90 min, 100 μg/ml, pH 7.4

T1 sequence (Q92887 whole entry): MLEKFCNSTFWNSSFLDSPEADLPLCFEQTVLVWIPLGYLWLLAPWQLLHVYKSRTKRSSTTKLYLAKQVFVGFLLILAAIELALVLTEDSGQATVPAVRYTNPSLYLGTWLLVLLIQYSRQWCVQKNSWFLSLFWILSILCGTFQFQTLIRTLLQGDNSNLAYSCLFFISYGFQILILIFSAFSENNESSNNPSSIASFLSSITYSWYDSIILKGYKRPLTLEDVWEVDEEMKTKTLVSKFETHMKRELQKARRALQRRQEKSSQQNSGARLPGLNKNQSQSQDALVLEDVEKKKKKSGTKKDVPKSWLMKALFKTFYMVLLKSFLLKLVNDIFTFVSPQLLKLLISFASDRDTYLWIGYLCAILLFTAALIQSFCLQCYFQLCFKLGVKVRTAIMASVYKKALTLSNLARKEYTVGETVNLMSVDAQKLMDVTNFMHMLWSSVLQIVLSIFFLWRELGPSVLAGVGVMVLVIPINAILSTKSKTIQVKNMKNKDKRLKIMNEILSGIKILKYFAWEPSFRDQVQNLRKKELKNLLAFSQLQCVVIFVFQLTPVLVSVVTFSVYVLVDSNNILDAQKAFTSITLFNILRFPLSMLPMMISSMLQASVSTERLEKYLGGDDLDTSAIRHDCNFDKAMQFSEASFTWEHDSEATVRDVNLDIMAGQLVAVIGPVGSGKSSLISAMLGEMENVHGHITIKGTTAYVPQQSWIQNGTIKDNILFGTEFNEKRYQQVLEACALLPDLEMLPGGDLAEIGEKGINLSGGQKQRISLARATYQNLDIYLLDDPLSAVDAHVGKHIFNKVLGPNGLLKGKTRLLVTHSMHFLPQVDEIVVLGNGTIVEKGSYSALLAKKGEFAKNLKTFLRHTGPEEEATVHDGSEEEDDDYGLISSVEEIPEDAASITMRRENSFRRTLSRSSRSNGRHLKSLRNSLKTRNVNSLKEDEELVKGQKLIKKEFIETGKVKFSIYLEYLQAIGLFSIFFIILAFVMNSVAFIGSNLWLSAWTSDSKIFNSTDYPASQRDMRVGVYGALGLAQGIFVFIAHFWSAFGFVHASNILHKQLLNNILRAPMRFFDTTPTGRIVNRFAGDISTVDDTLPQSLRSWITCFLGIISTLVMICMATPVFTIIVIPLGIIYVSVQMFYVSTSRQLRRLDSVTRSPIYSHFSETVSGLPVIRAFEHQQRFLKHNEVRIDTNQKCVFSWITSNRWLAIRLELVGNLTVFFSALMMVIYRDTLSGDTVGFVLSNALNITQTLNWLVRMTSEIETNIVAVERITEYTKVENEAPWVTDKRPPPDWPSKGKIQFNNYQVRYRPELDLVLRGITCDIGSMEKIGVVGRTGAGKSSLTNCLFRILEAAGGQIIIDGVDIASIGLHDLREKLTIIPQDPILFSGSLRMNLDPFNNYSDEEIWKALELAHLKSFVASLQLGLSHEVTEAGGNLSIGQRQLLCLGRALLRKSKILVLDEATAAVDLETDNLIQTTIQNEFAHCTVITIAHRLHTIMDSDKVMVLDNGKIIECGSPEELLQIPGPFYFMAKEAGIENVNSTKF

| PappAB ([3]; Caco-2) | PappBA ([3]; Caco-2) | Compound | other results |
| --- | --- | --- | --- |
| – | – | O=C(O)[C@H]1O[C@@H](Oc2cc3oc(-c4ccc(O)cc4)cc(=O)c3c(O)c2O)[C@H](O)[C@@H](O)[C@@H]1O [Scutellarin, 4,5,6-trihydroxyflavone-7-glucuronide] | identification as MRP2 substrate with MRP2 inhibitor MK571 [1]: identified as the substrate for MRP2 |
| – | – | CCOCCOCCO [Transcutol ®, diethylene glycol monoethylether] | sequence of inhibition effects on MRP2 ([2]; within excipient group, p<0.05): PEG 2000>PEG 400>Transcutol®; PappAB [3, 4]: 2.69 ± 0.35 10^−6 cm · s^−1; PappBA [3, 4]: 5.99 ± 0.52 10^−6 cm · s^−1 |
| – | – | OC[C@H]1O[C@@H](O[C@H]2[C@H](O)[C@@H](O)C(O)O[C@@H]2CO)[C@H](O)[C@@H](O)[C@H]1O (stereo partly shown) [lactose] | PappAB [3, 4]: 1.44 ± 0.24 10^−6 cm · s^−1; PappBA [3, 4]: 7.90 ± 0.43 10^−6 cm · s^−1 |
| 4.04 ± 0.33 10^−6 cm · s^−1 | 9.33 ± 0.36 10^−6 cm · s^−1 | OC[C@H]1O[C@@H]2O[C@H]3[C@H](O)[C@@H](O)[C@@H](O[C@H]4[C@H](O)[C@@H](O)[C@@H](O[C@H]5[C@H](O)[C@@H](O)[C@@H](O[C@H]6[C@H](O)[C@@H](O)[C@@H](O[C@H]7[C@H](O)[C@@H](O)[C@@H](O[C@H]8[C@H](O)[C@@H](O)[C@@H](O[C@H]1[C@H](O)[C@H]2O)O[C@@H]8CO)O[C@@H]7CO)O[C@@H]6CO)O[C@@H]5CO)O[C@@H]4CO)O[C@@H]3CO [β-cyclodextrin] | scutellarin concentrations measured compared with scutellarin standard group (FIG. 2) ([2]; higher than standard means MRP2 inhibition): lower quantities of scutellarin than that of the standard group |
| 2.03 ± 0.35 10^−6 cm · s^−1 | 4.38 ± 0.13 10^−6 cm · s^−1 | Pluronic ® F68 | Efflux reduction sequence ([3]; Caco-2): Cremophor® RH>Pluronic® F68>Labrasol®>Pluronic® F127 |
| 1.84 ± 0.09 10^−6 cm · s^−1 | 5.31 ± 0.49 10^−6 cm · s^−1 | Pluronic ® F127 | Efflux reduction sequence ([3]; Caco-2): Cremophor® RH>Pluronic® F68>Labrasol®>Pluronic® F127 |
| 1.46 ± 0.08 10^−6 cm · s^−1 | 1.96 ± 0.05 10^−6 cm · s^−1 | polyethylene glycol [PEG 400] | – |
| 9.91 ± 0.35 10^−6 cm · s^−1 | 12.91 ± 1.60 10^−6 cm · s^−1 | polyethylene glycol [PEG 2000] | – |
